According to ChEMBL document CHEMBL1201862, “PubChem BioAssay data set” (2004):
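Where inhibition never reached the appropriate level, the endpoint shown equals the highest concentration tested. Otherwise, values were interpolated linearly from a five-concentration, 48-hour dose response in 96-well plates. Abbreviation: GI50, concentration required for 50% inhibition of growth.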 The source made the active and inactive calls. No stated cut-off is given here; in the data, active = GI50 up to about 1.1 µM and inactive = higher.

What was measured:
Assay in all cases: inhibition of tumour cell growth, NCI panel, 48 h
[1] = tested on: OVCAR-4
[2] = tested on: MDA-MB-231
[3] = tested on: EKVX
[4] = tested on: DU-145
[5] = tested on: NCI/ADR-RES
[6] = tested on: NCI-H23
[7] = tested on: SW-620
[8] = tested on: SN12C
[9] = tested on: SF-268
[10] = tested on: SK-OV-3
[11] = tested on: UACC-62
[12] = tested on: BT-549
[13] = tested on: HOP-92
[14] = tested on: UO-31
[15] = tested on: SNB-19
[16] = tested on: KM12
[17] = tested on: SK-MEL-2
[18] = tested on: M14
[19] = tested on: SK-MEL-5
[20] = tested on: HOP-62
[21] = tested on: SK-MEL-28
[22] = tested on: HCT-15
[23] = tested on: OVCAR-8
[24] = tested on: CCRF-CEM
[25] = tested on: MDA-MB-435
[26] = tested on: PC-3
[27] = tested on: CAKI-1
[28] = tested on: Hs-578T
[29] = tested on: K562
[30] = tested on: UACC-257
[31] = tested on: MCF7
[32] = tested on: A498
[33] = tested on: RPMI-8226
[34] = tested on: T47D
[35] = tested on: MOLT-4
[36] = tested on: LOX IMVI
[37] = tested on: COLO 205
[38] = tested on: SF-539
[39] = tested on: TK-10
[40] = tested on: NCI-H226
[41] = tested on: HCC 2998
[42] = tested on: OVCAR-5
[43] = tested on: IGROV-1
[44] = tested on: SNB-75
[45] = tested on: 786-0
[46] = tested on: ACHN
[47] = tested on: SF-295
[48] = tested on: HCT-116
[49] = tested on: OVCAR-3
[50] = tested on: A549
[51] = tested on: NCI-H522
[52] = tested on: U-251
[53] = tested on: RXF 393
[54] = tested on: HT-29
[55] = tested on: NCI-H460
[56] = tested on: SR

In the case of `CCCCCCCCCCCCCCCCCCNc1ccn(C2OC(COP(=O)(O)O)C(O)C2O)c(=O)n1` (stereo unspecified), the GI50 [1] is reported as > 100 µM (inactive), the GI50 [2] is reported as > 100 µM (inactive) and the GI50 [3] is reported as > 100 µM (inactive). For the same molecule, the GI50 [4] was > 100 µM (inactive), the GI50 [5] was > 100 µM (inactive) and the GI50 [6] was > 100 µM (inactive). For the same molecule, the GI50 [7] was > 100 µM (inactive), the GI50 [8] was > 100 µM (inactive) and the GI50 [9] was > 100 µM (inactive). The GI50 [10] was > 100 µM (inactive), the GI50 [11] was > 100 µM (inactive) and the GI50 [12] was > 100 µM (inactive). For the same molecule, the GI50 [13] was > 100 µM (inactive), the GI50 [14] was > 100 µM (inactive) and the GI50 [15] was > 100 µM (inactive). For the same molecule, the GI50 [16] was > 100 µM (inactive), the GI50 [17] was > 100 µM (inactive) and the GI50 [18] was > 100 µM (inactive). The GI50 [19] was > 100 µM (inactive), the GI50 [20] was > 100 µM (inactive) and the GI50 [21] was > 100 µM (inactive). For the same molecule, the GI50 [22] was > 100 µM, the GI50 [23] was > 100 µM (inactive) and the GI50 [24] was > 100 µM (inactive). For the same molecule, the GI50 [25] was > 100 µM (inactive), the GI50 [26] was > 100 µM (inactive) and the GI50 [27] was > 100 µM (inactive). The GI50 [28] was > 100 µM (inactive), the GI50 [29] was > 100 µM (inactive) and the GI50 [30] was > 100 µM (inactive). For the same molecule, the GI50 [31] was > 100 µM (inactive), the GI50 [32] was > 100 µM (inactive) and the GI50 [33] was > 100 µM (inactive). The GI50 [34] was > 100 µM (inactive), the GI50 [35] was > 100 µM (inactive) and the GI50 [36] was > 100 µM (inactive). For the same molecule, the GI50 [37] was > 100 µM (inactive), the GI50 [38] was > 100 µM (inactive) and the GI50 [39] was > 100 µM (inactive). The GI50 [40] was > 100 µM (inactive), the GI50 [41] was > 100 µM (inactive) and the GI50 [42] was > 100 µM (inactive). The GI50 [43] was > 100 µM (inactive), the GI50 [44] was > 100 µM (inactive) and the GI50 [45] was > 100 µM (inactive). For the same molecule, the GI50 [46] was > 100 µM (inactive), the GI50 [47] was > 100 µM (inactive) and the GI50 [48] was > 100 µM (inactive). For the same molecule, the GI50 [49] was > 100 µM (inactive), the GI50 [50] was > 100 µM (inactive) and the GI50 [51] was > 100 µM (inactive). For the same molecule, the GI50 [52] was > 100 µM (inactive), the GI50 [53] was > 100 µM (inactive) and the GI50 [54] was > 100 µM (inactive).
With `CC[C@@]1(O)C(=O)OCc2c1cc1n(c2=O)Cc2c-1nc1ccccc1c2/C=N\c1ccc(N[C@@H]2c3cc4c(cc3[C@@H](c3cc(OC)c(O)c(OC)c3)[C@H]3C(=O)OC[C@@H]32)OCO4)cc1` the GI50 [4] was < 0.01 µM (active), the GI50 [6] was 0.0198 µM (active) and the GI50 [9] was < 0.0185 µM (active). The GI50 [55] was < 0.01 µM (active), the GI50 [12] was 0.11 µM (active) and the GI50 [14] was 0.0403 µM (active). For the same molecule, the GI50 [15] was 0.0446 µM (active), the GI50 [18] was 0.0194 µM (active) and the GI50 [19] was 0.0315 µM (active). The GI50 [20] was < 0.0136 µM (active), the GI50 [56] was < 0.01 µM (active) and the GI50 [29] was 0.0585 µM (active). For the same molecule, the GI50 [30] was 0.315 µM (active), the GI50 [31] was < 0.01 µM (active) and the GI50 [34] was < 0.014 µM (active). The GI50 [35] was < 0.01 µM (active), the GI50 [45] was < 0.0104 µM (active) and the GI50 [46] was < 0.01 µM (active). The GI50 [48] was 0.033 µM (active), the GI50 [50] was 0.038 µM (active) and the GI50 [51] was 0.0427 µM (active). For the same molecule, the GI50 [52] was 0.171 µM (active).
